From patent publication US4215136A, “Insoluble metal salts of N-acetyl-tryptophane and use thereof” (Cooperation Pharmaceutique Francaise, priority 1976, dated 1980)
Where two headings read alike, the source gives them in different places.

Columns and labels:
[1] = Interaction with a monoamine-oxidase inhibitor (MAOI, Tylciprine); format: in vivo, Sprague-Dawley male rats of OFA strain; details: for central nervous action indicated by hyperthermia and hyperactivity: with MAOI (Tylciprine)
Experimental: III--Action on the central nervous system:
(A) Interaction with a monoamine-oxidase inhibitor (MAOI):
Sprague-Dawley male rats of OFA strain received 20 mg/kg intra peritoneally of Tylciprine (MAOI) and twenty minutes later, 3 g/kg of compound A (D,L) bucally.

[2] = "stress ulcer" technique aggravated by para-chloro-phenyl-alanine (PCPA); format: in vivo, female S.P.F. Sprague-Dawley OFA Iffa-Credo rats; details: PCPA 100 mg/kg intraperitoneally
Experimental: (C) Tests according to the "stress ulcer" technique aggravated by para-chloro-phenyl-alanine (PCPA) administered in a non-blocking dose.
The rats used were of the same sex, same strain and had the same weight as those used in the tests described under B. The experimental protocol was also the same.
However, in these tests the rats received intraperitoneally, at the time of stressing, 100 mg/kg of PCPA in suspension in distilled water including 3% of gum arabic and an "absolute control" group was provided having received no preparation before placing under stress.
By reason of the aggravation of the ulcers caused by the PCPA, the Lwoff assessment is no longer usable and is replaced by the following:
2 : three to four ulcers in the form of
5 : one to two ulcers in the form of "fur-
6 : three to four ulcers least 5 mm in length
with a maximum of 4 + 6 = 10.
In this way it was possible to determine the ulceration index and the percentage inhibition with respect to the controls.

[3] = "Shay ulcer" test (pylorus ligature); format: in vivo, female rats (Sprague-Dawley OFA Iffa-Credo)
Experimental: (A) Tests by the technique called "Shay ulcer" [Gastroenterology, 5, 43, (1945)].
The study was carried out on female rats [Sprague-Dawley OFA Iffa-Credo] weighing 170±10 g, conforming to the experimental protocol described below.
After fasting 48 hours, during which the rats had always available to them a 20% glucose solution, the pylorus was ligated and all beverage was eliminated.
Compound A in the form of two suspensions respectively 5 and 10% in distilled water containing 3% of gum arabic was administered orally and before the ligature of the pylorus to three groups of animals, the animals of the first two groups receiving the 5% solution and those of the third the 10% solution. These three groups of animals received active substance to the extent respectively of 250 mg/kg as regards those of the first group, 500 mg/kg as regards those of the second and 1000 mg/kg those of the third. A fourth group and control group of animals received 10 ml/kg of bidistilled water. […]
The tests having been carried out with aluminium acetyl-tryptophanate (compound A), on the one hand, and with titanium acetyl-tryptophanate (compound B), on the other hand, for each of these compounds there was determined, the "anti-ulcer dose 50" (or again active dose AD 50) by oral administration; for this determination the method of Litchfield and Wilcoxon [J. Pharmacol. 96, 98-111 (1949)], was employed. […]

[4] = Activity on intestinal passage (vegetable carbon); format: in vivo, male mice; details: 2, 4 and 6 g/kg buccally; 10 minutes
Experimental: II--Activity on intestinal passage:
Male mice, fasting for 24 hours, weighing 18-20 g. were used.
The substances to be tested were administered buccally before a suspension of vegetable carbon (10 g/100 ml).
After 10 minutes, the animals were bled and the intestine was removed and examined.

[5] = "stress ulcer" test (immobilization); format: in vivo, female S.P.F. Sprague-Dawley OFA Iffa-Credo rats
Experimental: (B) Tests according to the technique called "stress ulcer". Rossi and Bonfils--Compte rendus de la Societe de Biologie, (1956), 150, page 2124.
The study was carried out on female S.P.F. Sprague-Dawley OFA Iffa-Credo rats, weighing 140±10 g and adhering to the following experimental protocol.
To cause the ulcer, the animals were immobilized in a flexible grid with meshes of 4×4 mm and suspended horizontally; they received neither food nor drink. They were sacrificed at the end of 24 hours. The stomachs were removed and opened and then the ulcers were counted with a binocular lens.
Each stomach was assessed according to the method of J. M. LWOFF and the ulceration index calculated.
The compound A suspended in distilled water with 3% of gum arabic was administered 48 hours and 24 hours before and at the time of placing under stress to three groups of animals. These animals each received by the oral route, 500, 1000 and 1500 mg/kg of this compound according to their group.
A control group received for three days, orally gummy water in the amount of 1 ml/100 g.
As in the case of "Shay ulcer" the same study was reproduced with kaolin.
The kaolin was suspended in distilled water with 3% of gum arabic and was administered by the buccal route 48 hours and 24 hours before and at the time of placing under stress. […]

[6] = anti-ulcer activity after administering reserpine; format: in vivo, Sprague-Dawley female rats, OFA S.P.F. Iffa Credo strain; details: p.o., 3 hours before and 3 hours after reserpine 5 mg/kg i.p.; Litchfield and Wilcoxon; 1200 min
Experimental: (D) Study of the anti-ulcer activity of compound A (D,L) and of compound B (D,L) after administering reserpine.
The technique used was that of Cohen and A. Pessonnier (Ann. Pharm. Fr (1963) 21, 215-22) according to the following protocol:
Sprague-Dawley female rats were used, of OFA S.P.F. Iffa Credo strain weighing 150±20 g; the rats received a single injection by the intraperitoneal route of 5 mg/kg of reserpine in solution in 0.25% acetic acid; the compound studied were administered twice by the buccal route: three hours before and three hours after the injection of reserpine; the rats were sacrificed 20 hours after the injection of reserpine; the assessment was established as follows:
1 = one to two ulcers in the form of small
2 = more than two ulcers
3 = one to two ulcers in the form of more or
4 = more than two ulcers
5 = one to two ulcers in the form of "furrows"
measuring at least 5 mm
6 = more than two ulcers
Maximum assessment for one stomach : 2 + 4 + 6 = 12
From the results obtained the ulceration index was deduced; the percentage of inhibition was calculated with respect to the index obtained in the controls.
The values of the AD50 calculated according to the method of Litchfield and Wilcoxon are: […]

[7] = format: in vivo, male rats
Text: (B) Interaction with a MAOI after treatment with P.C.P.A.
If the test is renewed under the same conditions but on male rats previously treated by decreasing doses of P.C.P.A. which is a tryptophane-hydroxylase inhibitor, it is observed that: […]

[8] = 8640 min
[9] = 2 g/kg, Tylciprine 20 mg/kg i.p.
[10] = 3 g/kg bucally, Tylciprine 20 mg/kg i.p.
[11] = after PCPA 6 mg/kg for 1 day, Tylciprine

Which hyperactivity [1, 9] does the source give for CC(=O)N[C@@H](Cc1c[nH]c2ccccc12)C(=O)[O-].CC(=O)N[C@@H](Cc1c[nH]c2ccccc12)C(=O)[O-].CC(=O)N[C@@H](Cc1c[nH]c2ccccc12)C(=O)[O-].[Al+3] [Compound A, monobasic-(DL) aluminium N-acetyl-tryptophanate] here?
Its hyperactivity is “notable hyperactivity”.

What about the hyperthermia [1, 9] of the same molecule?
The hyperthermia was “does not cause hyperthermia”.

And the hyperthermia ([1]; 3 g/kg bucally, 20 minutes after Tylciprine 20 mg/kg i.p.)?
Its hyperthermia is “Hyperthermia was observed which commenced fairly rapidly”.

What about the hyperactivity [1, 10] of the same molecule?
Its hyperactivity is “hyperactivity”.

What about the onset of hyperactivity [1, 10] of the same molecule?
The onset of hyperactivity was 80 min.

What about the “time of maximum hyperactivity” value [1, 10] of the same molecule?
Its value is 155 min.

What about the “time of maximum hyperthermia” value [1, 10] of the same molecule?
The value was 185 min.

And the “central nervous action indicated by hyperthermia and hyperactivity” value [1]?
Its value is “apparently central nervous serotoninergic action, that is to say antidepressive”.

What about the “anti-ulcer activity, stress ulcer aggravated by PCPA (in words)” value [2] of the same molecule?
The value was “still considerable”.

What about the “AD50, stress ulcer aggravated by PCPA” value ([2]; oral route) of the same molecule?
Its value is 1325 mg/kg.

And the “activity relative to that expected by reason of Al^3+ / Ti^4+ ions alone” value ([3]; Shay ulcer)?
The value was “about 7 times higher”.

And the “AD 50 (anti-ulcer dose 50), Shay ulcer” value ([3]; oral, before ligature of the pylorus, 18 hours, Litchfield and Wilcoxon)?
The value was 550 mg/kg.

And the “increase of intestinal passage with respect to the controls” value [4]?
The value was “No significant increase”.

What about the “AD 50, stress ulcer” value ([5]; buccal route, 48 h and 24 h before and at time of stress, sacrificed at 24 hours) of the same molecule?
Its value is 700 mg/kg.

And the “superiority of compound A (over kaolin), stress ulcer versus Shay ulcer” value ([5]; stress ulcer compared with Shay ulcer)?
Its value is “still much more marked”.

What about the “AD50, reserpine ulcer” value [6] of the same molecule?
Its value is 1447 mg/kg.

And the hyperactivity [7, 11]?
The hyperactivity was “notable hyperactivity”.

What about the rectal temperature [7, 11] of the same molecule?
The rectal temperature was “without variation in the rectal temperature”.

What about the hyperactivity ([7]; after PCPA 12.5 mg/kg for 1 day, Tylciprine) of the same molecule?
Its hyperactivity is “first signs of hyperactivity”.

And the hyperthermia and hyperactivity ([7]; after PCPA 50 mg/kg for 2 days, Tylciprine)?
The hyperthermia and hyperactivity was “neither hyperthermia nor hyperactivity”.

What about the “passage through the hemato-cerebral barrier” value ([7]; rat, in vivo) of the same molecule?
The value was “passage of its anion through the hemato-cerebral barrier”.

What about the “LD50 (higher than the total dose without mortality)” value ([8]; oral, six days) of the same molecule?
Its value is over 15000 mg/kg.

What about the “LD 50” value ([8]; orally) of the same molecule?
The value was over 15000 mg/kg.

With N[C@@H](Cc1c[nH]c2ccccc12)C(=O)O [L-tryptophane] as the molecule, how does the “central nervous action indicated by hyperthermia and hyperactivity” value [1] read?
The value was “comparable activities”.
